In general, Ki refers to the dissociation constant of the complex between target and ligand, obtained from inhibition or displacement.

Chain of Human α2δ-1 subunit of Cav2.2 calcium channel (P54289 25-1103): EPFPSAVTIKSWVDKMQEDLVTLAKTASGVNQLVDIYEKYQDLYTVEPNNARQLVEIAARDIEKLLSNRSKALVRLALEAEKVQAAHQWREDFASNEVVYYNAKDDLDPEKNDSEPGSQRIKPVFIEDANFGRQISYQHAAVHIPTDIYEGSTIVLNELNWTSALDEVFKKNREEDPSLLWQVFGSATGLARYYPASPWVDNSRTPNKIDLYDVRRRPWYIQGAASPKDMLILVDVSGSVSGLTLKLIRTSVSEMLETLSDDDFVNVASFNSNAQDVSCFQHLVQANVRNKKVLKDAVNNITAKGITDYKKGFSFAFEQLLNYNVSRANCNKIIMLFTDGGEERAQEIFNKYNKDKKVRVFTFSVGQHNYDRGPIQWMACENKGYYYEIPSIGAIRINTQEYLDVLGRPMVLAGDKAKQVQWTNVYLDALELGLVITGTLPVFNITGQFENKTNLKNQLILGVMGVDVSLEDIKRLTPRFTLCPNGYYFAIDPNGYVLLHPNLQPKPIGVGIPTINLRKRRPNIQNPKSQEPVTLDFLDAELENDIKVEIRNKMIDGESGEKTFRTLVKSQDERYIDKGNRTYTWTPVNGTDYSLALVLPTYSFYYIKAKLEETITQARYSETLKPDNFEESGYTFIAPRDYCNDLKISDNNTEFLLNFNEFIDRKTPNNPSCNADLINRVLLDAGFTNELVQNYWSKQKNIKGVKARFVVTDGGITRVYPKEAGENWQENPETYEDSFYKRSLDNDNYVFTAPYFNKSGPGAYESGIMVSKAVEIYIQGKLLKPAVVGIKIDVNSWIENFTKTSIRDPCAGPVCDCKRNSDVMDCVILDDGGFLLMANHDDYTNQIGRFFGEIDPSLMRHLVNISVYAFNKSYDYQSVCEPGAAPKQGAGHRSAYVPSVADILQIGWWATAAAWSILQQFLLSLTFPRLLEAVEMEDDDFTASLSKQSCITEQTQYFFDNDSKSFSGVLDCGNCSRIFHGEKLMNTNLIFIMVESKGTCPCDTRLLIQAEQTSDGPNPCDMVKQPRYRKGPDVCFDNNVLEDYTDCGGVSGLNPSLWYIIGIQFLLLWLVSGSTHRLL

In the test the target is Human α2δ-1 subunit of Cav2.2 calcium channel (Homo sapiens, UniProt P54289). In words: Human α2δ-1 subunit of Cav2.2 calcium channel assay ([3H]-Gabapentin radioligand binding). The following applies: Human α2δ-1 enriched membranes, 15 nM [3H]-Gabapentin, 60 min at 27 °C. As for the experimental part:
Human α2δ-1 subunit of Cav2.2 calcium channel assay
Human α2δ-1 enriched membranes (2.5 µg) were incubated with 15 nM of radiolabeled [3H]-Gabapentin in assay buffer containing Hepes-KOH 10mM, pH 7.4. NSB (non specific binding) was measured by adding 10 µM pregabalin. The binding of the tested compound was measured at either one concentration (% inhibition at 1 or 10 µM) or five different concentrations to determine affinity values (Ki). After 60 min incubation at 27 °C, binding reaction was terminated by filtering through Multiscreen GF/C (Millipore) presoaked in 0.5 % polyethyleneimine in Vacuum Manifold Station, followed by 3 washes with ice-cold filtration buffer containing 50 mM Tris-HCI, pH 7.4. Filter plates were dried at 60 °C for 1 h and 30 µL of scintillation cocktail were added to each well before radioactivity reading. Readings were performed in a Trilux 1450 Microbeta radioactive counter (Perkin Elmer).
Take `O=C(O)[C@@H]1C[C@H](n2cc(-c3cccc(F)c3)nn2)CN1` [Example 1, (2S,4S)-4-(4-(3-Fluorophenyl)-1H-1,2,3-triazol-1-yl)pyrrolidine-2-carboxylic acid]: the Ki is under 0.5 µM. Then `O=C(O)[C@@H]1C[C@H](n2cc(-c3cccc(Cl)c3)nn2)CN1` [Example 2, (2S,4S)-4-(4-(3-chlorophenyl)-1H-1,2,3-triazol-1-yl)pyrrolidine-2-carboxylic acid], with under 0.5 µM; and `COc1ccccc1-c1cn([C@@H]2CN[C@H](C(=O)O)C2)nn1` [Example 3, (2S,4S)-4-(4-(2-methoxyphenyl)-1H-1,2,3-triazol-1-yl)pyrrolidine-2-carboxylic acid], with at least 5 µM. Next, `COc1cccc(-c2cn([C@@H]3CN[C@H](C(=O)O)C3)nn2)c1` [Example 4, (2S,4S)-4-(4-(3-methoxyphenyl)-1H-1,2,3-triazol-1-yl)pyrrolidine-2-carboxylic acid]: at least 5 µM; `COc1ccc(-c2cn([C@@H]3CN[C@H](C(=O)O)C3)nn2)cc1` [Example 6, (2S,4S)-4-(4-(4-methoxyphenyl)-1H-1,2,3-triazol-1-yl)pyrrolidine-2-carboxylic acid]: at least 5 µM. Consider `O=C(O)[C@@H]1C[C@H](n2cc(-c3ccccc3)nn2)CN1` [Example 7, (2S,4S)-4-(4-phenyl-1H-1,2,3-triazol-1-yl)pyrrolidine-2-carboxylic acid], for which the Ki was in the range of 0.5 to 5 µM.

On to `Cc1cccc(-c2cn([C@@H]3CN[C@H](C(=O)O)C3)nn2)c1` [Example 8, (2S,4S)-4-(4-(m-tolyl)-1H-1,2,3-triazol-1-yl)pyrrolidine-2-carboxylic acid], for which the Ki was at least 5 µM. On to `O=C(O)[C@@H]1C[C@H](n2cc(-c3ccccn3)nn2)CN1` [Example 9, (2S,4S)-4-(4-(pyridin-2-yl)-1H-1,2,3-triazol-1-yl)pyrrolidine-2-carboxylic acid], for which the inhibition constant (Ki) lay in the range of 0.5 to 5 µM. In the case of `O=C(O)[C@@H]1C[C@H](n2cc(-c3ccc(F)c(F)c3)nn2)CN1` [Example 10, (2S,4S)-4-(4-(3,4-difluorophenyl)-1H-1,2,3-triazol-1-yl)pyrrolidine-2-carboxylic acid], the Ki was under 0.5 µM. Turning to `COc1ccc(-c2cn([C@@H]3CN[C@H](C(=O)O)C3)nn2)c(Cl)c1` [Example 11, (2S,4S)-4-(4-(2-chloro-4-methoxyphenyl)-1H-1,2,3-triazol-1-yl)pyrrolidine-2-carboxylic acid], the Ki was at least 5 µM. Then `O=C(O)[C@@H]1C[C@H](n2cc(-c3ccccc3Cl)nn2)CN1` [Example 12, (2S,4S)-4-(4-(2-chlorophenyl)-1 H-1,2,3-triazol-1-yl)pyrrolidine-2-carboxylic acid], with 0.5 to 5 µM; and `O=C(O)[C@@H]1C[C@H](n2cc(-c3ccc(Cl)cc3Cl)nn2)CN1` [Example 13, (2S,4S)-4-(4-(2,4-dichlorophenyl)-1H-1,2,3-triazol-1-yl)pyrrolidine-2-carboxylic acid], with at least 5 µM; and `O=C(O)[C@@H]1C[C@H](n2cc(-c3ccc(Cl)c(Cl)c3)nn2)CN1` [Example 14, (2S,4S)-4-(4-(3,4-dichlorophenyl)-1H-1,2,3-triazol-1-yl)pyrrolidine-2-carboxylic acid], with 0.5 to 5 µM. Then `O=C(O)[C@@H]1C[C@H](n2cc(-c3cc(F)cc(F)c3)nn2)CN1` [Example 15, (2S,4S)-4-(4-(3,5-difluorophenyl)-1H-1,2,3-triazol-1-yl)pyrrolidine-2-carboxylic acid], with at least 5 µM.

Take `O=C(O)[C@@H]1C[C@H](n2cc(Cc3ccccc3)nn2)CN1` [Example 16, (2S,4S)-4-(4-benzyl-1H-1,2,3-triazol-1-yl)pyrrolidine-2-carboxylic acid]: the Ki is at least 5 µM. Then `O=C(O)[C@@H]1C[C@H](n2cc(-c3ccc(Br)cc3)nn2)CN1` [Example 17, (2S,4S)-4-(4-(4-bromophenyl)-1 H-1,2,3-triazol-1-yl)pyrrolidine-2-carboxylic acid], with 0.5 to 5 µM.

As for `O=C(O)[C@@H]1C[C@H](n2cc(-c3cccnc3)nn2)CN1` [Example 18, (2S,4S)-4-(4-(pyridin-3-yl)-1H-1,2,3-triazol-1-yl)pyrrolidine-2-carboxylic acid], the Ki was at least 5 µM.

`O=C(O)[C@@H]1C[C@H](n2cc(-c3ccncc3)nn2)CN1` [Example 19, (2S,4S)-4-(4-(pyridin-4-yl)-1H-1,2,3-triazol-1-yl)pyrrolidine-2-carboxylic acid]: the Ki was at least 5 µM.

`O=C(O)[C@@H]1C[C@H](n2cc(-c3cncc(Cl)c3)nn2)CN1` [Example 20, (2S,4S)-4-(4-(5-chloropyridin-3-yl)-1H-1,2,3-triazol-1-yl)pyrrolidine-2-carboxylic acid]: the Ki was at least 5 µM. Then `N#Cc1cccc(-c2cn([C@@H]3CN[C@H](C(=O)O)C3)nn2)c1` [Example 21, (2S,4S)-4-(4-(3-cyanophenyl)-1H-1,2,3-triazol-1-yl)pyrrolidine-2-carboxylic acid], with at least 5 µM; and `N#Cc1ccc(-c2cn([C@@H]3CN[C@H](C(=O)O)C3)nn2)cc1` [Example 22, (2S,4S)-4-(4-(4-cyanophenyl)-1H-1,2,3-triazol-1-yl)pyrrolidine-2-carboxylic acid], with at least 5 µM. Then `O=C(O)[C@@H]1C[C@H](n2cc(Cc3cccc(Cl)c3)nn2)CN1` [Example 23, (2S,4S)-4-(4-(3-chlorobenzyl)-1 H-1,2,3-triazol-1-yl)pyrrolidine-2-carboxylic acid], with at least 5 µM.

`O=C(O)[C@@H]1C[C@H](n2cc(-c3cccc(Br)c3)nn2)CN1` [Example 24, (2S,4S)-4-(4-(3-bromophenyl)-1 H-1,2,3-triazol-1-yl)pyrrolidine-2-carboxylic acid]: the Ki lay in the range of 0.5 to 5 µM. Then `CN(C)Cc1cc(F)cc(-c2cn([C@@H]3CN[C@H](C(=O)O)C3)nn2)c1` [Example 25, (2S,4S)-4-(4-(3-((dimethylamino)methyl)-5-fluorophenyl)-1 H-1,2,3-triazol-1-yl)pyrrolidine-2-carboxylic acid], with at least 5 µM; and `CNCc1cc(F)cc(-c2cn([C@@H]3CN[C@H](C(=O)O)C3)nn2)c1` [Example 26, (2S,4S)-4-(4-(3-fluoro-5-((methylamino)methyl)phenyl)-1H-1,2,3-triazol-1-yl)pyrrolidine-2-carboxylic acid], with at least 5 µM.

For the compound `O=C(O)[C@@H]1C[C@H](n2cc(-c3cc(Cl)cc(Cl)c3)nn2)CN1` [Example 27, (2S,4S)-4-(4-(3,5-dichlorophenyl)-1H-1,2,3-triazol-1-yl)pyrrolidine-2-carboxylic acid], the Ki is at least 5 µM. On to `CN(Cc1ccccc1)Cc1cc(F)cc(-c2cn([C@@H]3CN[C@H](C(=O)O)C3)nn2)c1` [Example 28, (2S,4S)-4-(4-(3-((benzyl(methyl)amino)methyl)-5-fluorophenyl)-1H-1,2,3-triazol-1-yl)pyrrolidine-2-carboxylic acid], for which the Ki is at least 5 µM. Next, `O=C(O)[C@@H]1C[C@H](n2cc(Cc3ccc(Cl)cc3)nn2)CN1` [Example 30, (2S,4S)-4-(4-(4-chlorobenzyl)-1 H-1,2,3-triazol-1-yl)pyrrolidine-2-carboxylic acid]: at least 5 µM; “(2S,4S)-4-(4-(3-((benzylamino)methyl)-5-fluorophenyl)-1H-1,2,3-triazol-1-yl)pyrrolidine-2-carboxylic acid [Example 29]”: at least 5 µM; “(2S,4S)-4-(4-(4-fluorophenyl)-1 H-1,2,3-triazol-1-yl)pyrrolidine-2-carboxylic acid [Example 5]”: 0.5 to 5 µM.

The values above are taken from EP3741750A1, “4-(1H-1,2,3-TRIAZOL-1-YL)PYRROLIDINE-2-CARBOXYLIC ACID DERIVATIVES HAVING ACTIVITY AGAINST PAIN” (ESTEVE PHARMACEUTICALS, S.A., priority 2019, dated 2020).
